Experimental data published in publication PMC3242765, “Inhibitors of Alphavirus Entry and Replication Identified with a Stable Chikungunya Replicon Cell Line and Virus-Based Assays” (PLoS ONE, 2011).
Counter-ions that a name gives are not always drawn.

Experiments:
[1] = test system: CHIKV replicon; test: microbe, parasite or virus in culture; format: cell-based, Chikungunya virus (CHIKV)
[2] = test system: SFV-Rluc

## C[C@@H]1O[C@@H](OC[C@H]2O[C@@H](Oc3c(-c4ccc(O)c(O)c4)oc4cc(O)cc(O)c4c3=O)[C@H](O)[C@@H](O)[C@@H]2O)[C@H](O)[C@H](O)[C@H]1O [Rutin]
[1]
  CHIKV replicon % left: 49.5%
[2]
  SFV replication % left (surviving fraction, remaining percentage of SFV replication): 44.1%

## CC(C)(C)NCC(O)COc1ccccc1C#N (stereo not shown) [Bunitrolol]
[1]
  CHIKV replicon % left: 58.9%
[2]
  SFV replication % left (surviving fraction, remaining percentage of SFV replication): 40.7%

## COc1ccc(NS(=O)(=O)c2ccc(N)cc2)nn1 [Sulfamethoxypyridazine]
[1]
  CHIKV replicon % left: 82.0%
[2]
  SFV replication % left (surviving fraction, remaining percentage of SFV replication): 110.0%

## CNC1=Nc2ccc(Cl)cc2C(c2ccccc2)=[N+]([O-])C1 [Chlordiazepoxide]
[1]
  CHIKV replicon % left: 100.6%
[2]
  SFV replication % left (surviving fraction, remaining percentage of SFV replication): 54.3%

## Cc1c(N(C)CS(=O)(=O)[O-])c(=O)n(-c2ccccc2)n1C.[Na+] [Metamizol sodium]
[1]
  CHIKV replicon % left: 105.1%
[2]
  SFV replication % left (surviving fraction, remaining percentage of SFV replication): 86.0%

## COc1ccc2c(c1OC)C(=O)O[C@@H]2[C@H]1c2c(cc3c(c2OC)OCO3)CCN1C [Noscapine]
[1]
  CHIKV replicon % left: 78.4%
[2]
  SFV replication % left (surviving fraction, remaining percentage of SFV replication): 103.5%

## CCN(CC)C(=O)c1ccc(O)c(OC)c1 [Ethamivan]
[1]
  CHIKV replicon % left: 43.1%
[2]
  SFV replication % left (surviving fraction, remaining percentage of SFV replication): 85.5%

## CC(=O)CC(c1ccccc1)c1c(O)c2ccccc2oc1=O (stereo not shown) [3-(a-Acetonylbenzyl)-4-hydroxycoumarin]
[1]
  CHIKV replicon % left: 57.2%
[2]
  SFV replication % left (surviving fraction, remaining percentage of SFV replication): 79.5%

## O=C(O)c1cc2cc(Br)cc(Br)c2oc1=O [6,8-Dibromocoumarin carboxylic acid]
[1]
  CHIKV replicon % left: 100.1%
[2]
  SFV replication % left (surviving fraction, remaining percentage of SFV replication): 67.4%

## COc1c2occc2c(OC)c2c(=O)cc(C)oc12 [Khellin]
[1]
  CHIKV replicon % left: 95.4%
[2]
  SFV replication % left (surviving fraction, remaining percentage of SFV replication): 120.6%

## C[C@@H]1O[C@@H](O[C@H]2C[C@@H](O)[C@]3(CO)[C@H]4[C@H](O)C[C@]5(C)[C@@H](C6=CC(=O)OC6)CC[C@]5(O)[C@@H]4CC[C@]3(O)C2)[C@H](O)[C@H](O)[C@H]1O [Ouabain]
[1]
  CHIKV replicon % left: 89.2%
[2]
  SFV replication % left (surviving fraction, remaining percentage of SFV replication): 90.9%

## Oc1cc(O)c2cc(O)c(-c3ccc(O)c(O)c3)[o+]c2c1 [Cyanidin chloride]
[1]
  CHIKV replicon % left: 54.8%
[2]
  SFV replication % left (surviving fraction, remaining percentage of SFV replication): 24.5%

## CCN(CCO)CCCC(C)Nc1ccnc2cc(Cl)ccc12 (stereo not shown) [Hydroxychloroquine sulfate]
[1]
  CHIKV replicon % left: 100.1%
[2]
  SFV replication % left (surviving fraction, remaining percentage of SFV replication): 128.9%

## O=C(O)c1ccc(O)cc1O [2,4-Dihydroxylbenzoic acid]
[1]
  CHIKV replicon % left: 29.5%
[2]
  SFV replication % left (surviving fraction, remaining percentage of SFV replication): 32.1%

## CN(C)c1cccc2c(S(=O)(=O)Cl)cccc12
[1]
  CHIKV replicon % left: 10.4%
[2]
  SFV replication % left (surviving fraction, remaining percentage of SFV replication): 4.6%

## CC(=O)N(c1onc(C)c1C)S(=O)(=O)c1ccc(N)cc1 [Acetylsulfisoxazole]
[1]
  CHIKV replicon % left: 82.1%
[2]
  SFV replication % left (surviving fraction, remaining percentage of SFV replication): 40.4%

## CC(C)Cc1ccc(CC(=O)O)cc1 [Ibufenac]
[1]
  CHIKV replicon % left: 78.9%
[2]
  SFV replication % left (surviving fraction, remaining percentage of SFV replication): 102.2%

## O=c1c(O)c(-c2ccc(O)c(O)c2)oc2c(O[C@@H]3O[C@H](CO)[C@@H](O)[C@H](O)[C@H]3O)c(O)cc(O)c12 [Gossypin]
[1]
  CHIKV replicon % left: 104.3%
[2]
  SFV replication % left (surviving fraction, remaining percentage of SFV replication): 105.8%

## COC(=O)c1cc(O)c(O)c(O)c1 [Methyl gallate]
[1]
  CHIKV replicon % left: 100.7%
[2]
  SFV replication % left (surviving fraction, remaining percentage of SFV replication): 67.8%

## [H]/N=C(/N)NS(=O)(=O)c1ccc(N)cc1 [Sulfaguanidine]
[1]
  CHIKV replicon % left: 62.1%
[2]
  SFV replication % left (surviving fraction, remaining percentage of SFV replication): 63.5%

## (-)-Epicatechin gallate
[1]
  CHIKV replicon % left: 100.5%
[2]
  SFV replication % left (surviving fraction, remaining percentage of SFV replication): 94.8%

## COc1cc(/C=C/C(=O)O)cc(OC)c1O [Sinapic acid]
[1]
  CHIKV replicon % left: 51.4%
[2]
  SFV replication % left (surviving fraction, remaining percentage of SFV replication): 22.0%

## O=C(O)c1cc(O)c(O)c(O)c1 [Gallic acid]
[1]
  CHIKV replicon % left: 88.9%
[2]
  SFV replication % left (surviving fraction, remaining percentage of SFV replication): 148.8%

## O=c1c(-c2ccc(O)cc2)coc2cc(O)ccc12 [Daidzein]
[1]
  CHIKV replicon % left: 104.4%
[2]
  SFV replication % left (surviving fraction, remaining percentage of SFV replication): 76.6%

## O=C(c1ccccc1)c1cc2c(ccc3ccccc32)oc1=O [3-Benzoylbenzo(F)coumarin]
[1]
  CHIKV replicon % left: 68.0%
[2]
  SFV replication % left (surviving fraction, remaining percentage of SFV replication): 39.9%

## Nc1ccc(S(=O)(=O)Nc2ccccn2)cc1 [Sulfapyridine]
[1]
  CHIKV replicon % left: 79.9%
[2]
  SFV replication % left (surviving fraction, remaining percentage of SFV replication): 95.0%

## Cl.Cl.OCCN1CCN(CCC=C2c3ccccc3Sc3ccc(Cl)cc32)CC1 [Clopenthixol dihydrochloride]
[1]
  CHIKV replicon % left: 40.1%
[2]
  SFV replication % left (surviving fraction, remaining percentage of SFV replication): 55.2%

## CNC(C)(C)Cc1ccccc1 [Mephentermine sulfate]
[1]
  CHIKV replicon % left: 70.1%
[2]
  SFV replication % left (surviving fraction, remaining percentage of SFV replication): 81.8%

## CCCCCCCCOC(=O)c1cc(O)c(O)c(O)c1 [Octyl gallate]
[1]
  CHIKV replicon % left: 94.1%
[2]
  SFV replication % left (surviving fraction, remaining percentage of SFV replication): 134.4%

## Cc1noc(NS(=O)(=O)c2ccc(N)cc2)c1C [Sulfisoxazole]
[1]
  CHIKV replicon % left: 104.5%
[2]
  SFV replication % left (surviving fraction, remaining percentage of SFV replication): 91.4%

## C=CCOc1ccccc1OCC(O)CNC(C)C (stereo not shown) [Oxprenolol hydrochloride]
[1]
  CHIKV replicon % left: 84.3%
[2]
  SFV replication % left (surviving fraction, remaining percentage of SFV replication): 92.4%

## CCS(=O)(=O)CCn1c([N+](=O)[O-])cnc1C [Tinidazole]
[1]
  CHIKV replicon % left: 100.5%
[2]
  SFV replication % left (surviving fraction, remaining percentage of SFV replication): 104.1%

## COc1ccc([C@@H]2CC(=O)c3c(O)cc(O[C@@H]4O[C@H](CO[C@@H]5O[C@@H](C)[C@H](O)[C@@H](O)[C@H]5O)[C@@H](O)[C@H](O)[C@H]4O)cc3O2)cc1O [Hesperidin]
[1]
  CHIKV replicon % left: 102.2%
[2]
  SFV replication % left (surviving fraction, remaining percentage of SFV replication): 77.7%

## O=c1cc(-c2ccccc2)oc2c1ccc1ccccc12 [Alphanaphthoflavone]
[1]
  CHIKV replicon % left: 30.8%
[2]
  SFV replication % left (surviving fraction, remaining percentage of SFV replication): 14.6%

## NC(=O)N/N=C/c1ccc([N+](=O)[O-])o1 [Nitrofurazone]
[1]
  CHIKV replicon % left: 102.1%
[2]
  SFV replication % left (surviving fraction, remaining percentage of SFV replication): 83.7%

## COc1cc(O)c2c(=O)c(OC)c(-c3ccc(OC)c(OC)c3)oc2c1 [Quercetin-3,7,3',4'-tetramethylether]
[1]
  CHIKV replicon % left: 58.2%
[2]
  SFV replication % left (surviving fraction, remaining percentage of SFV replication): 65.0%

## CC(=O)c1cccc(O)c1 [3-Hydroxyacetophenone]
[1]
  CHIKV replicon % left: 97.4%
[2]
  SFV replication % left (surviving fraction, remaining percentage of SFV replication): 125.8%

## CC(=O)c1ccccc1O [2-Hydroxyacetophenone]
[1]
  CHIKV replicon % left: 99.4%
[2]
  SFV replication % left (surviving fraction, remaining percentage of SFV replication): 129.7%

## CN1C(=O)CN=C(c2ccccc2)c2cc(Cl)ccc21 [Diazepam]
[1]
  CHIKV replicon % left: 84.0%
[2]
  SFV replication % left (surviving fraction, remaining percentage of SFV replication): 73.6%

## CC(CN(C)C)CN1c2ccccc2Sc2ccccc21.CC(CN(C)C)CN1c2ccccc2Sc2ccccc21.O=C(O)C(O)C(O)C(=O)O (stereo not shown) [Trimeprazine tartrate]
[1]
  CHIKV replicon % left: 100.5%
[2]
  SFV replication % left (surviving fraction, remaining percentage of SFV replication): 120.4%

## O=C(O)/C=C\C(=O)O.O=C(O)/C=C\C(=O)O.OCCN1CCN(CCCN2c3ccccc3Sc3ccc(C(F)(F)F)cc32)CC1 [Fluphenatzinemaleate]
[1]
  CHIKV replicon % left: 104.3%
[2]
  SFV replication % left (surviving fraction, remaining percentage of SFV replication): 98.9%

## CC(=O)Nc1ccc(OCC(O)CNC(C)C)cc1 (stereo not shown) [Practolol]
[1]
  CHIKV replicon % left: 61.5%
[2]
  SFV replication % left (surviving fraction, remaining percentage of SFV replication): 117.3%

## CC(C)NCC(O)c1ccc(Cl)c(Cl)c1.Cl (stereo not shown) [Dichloroisoproterenol hydrochloride]
[1]
  CHIKV replicon % left: 69.2%
[2]
  SFV replication % left (surviving fraction, remaining percentage of SFV replication): 49.6%

## O=C(O[C@@H]1Cc2c(O)cc(O)cc2O[C@@H]1c1cc(O)c(O)c(O)c1)c1cc(O)c(O)c(O)c1 [(-)-Epigallocatechin gallate]
[1]
  CHIKV replicon % left: 90.4%
[2]
  SFV replication % left (surviving fraction, remaining percentage of SFV replication): 155.3%

## CCC1(c2ccccc2)C(=O)NC(=O)NC1=O [Phenobarbital]
[1]
  CHIKV replicon % left: 43.2%
[2]
  SFV replication % left (surviving fraction, remaining percentage of SFV replication): 58.6%

## CS(=O)(=O)OCCCCOS(C)(=O)=O [Busulfan]
[1]
  CHIKV replicon % left: 100.5%
[2]
  SFV replication % left (surviving fraction, remaining percentage of SFV replication): 51.8%

## CCCOC(=O)c1cc(O)c(O)c(O)c1 [n-Propyl gallate]
[1]
  CHIKV replicon % left: 39.4%
[2]
  SFV replication % left (surviving fraction, remaining percentage of SFV replication): 33.6%
